Structures can show the parent of a compound that is named as a salt. Where two headings read alike, the source gives them in different places.
How the values were obtained:
EGFR = biological target: T1, EGFR (Homo sapiens, UniProt P00533); experiment: EGF receptor tyrosine-protein kinase inhibition (ELISA of Poly[Glu:Tyr-P]); format: biochemical
T1 construct: EGF receptor tyrosin-protein kinase activity was assessed in human A431 cells; endogenous in cells; host or cells: human A431 cells
Experimental: EGF receptor tyrosin-protein kinase activity was assessed in human A431 cells using as a substrate Poly(Glu:Tyr) at 10 µg/ml with a preincubation and incubation times of 15 and 60 min, respectively, at 25°C respectively in 50 mM HEPES pH 7.4, 20 mM MgCl2 and 0.2 mM Na3VO4. An ELISA quantification method of Poly[Glu:Tyr-P] was employed (Cheng, K. and Koland, J.G. J Biol Chem, 1996, 271, 311-318). Table 5. Inhibition of EGFR at 10 µM

tumor leukaemia K562 = experiment: Tumor cell proliferation assay (alamarBlue); format: cell-based; conditions: Homo sapiens
Experimental: Changes in cell proliferation were detected based on the ability of viable cells to cause alamarBlue® to change its oxidized (non-fluorescent, blue) to a reduced (fluorescent, red) form. The alamarBlue® reaction allows the quantification of cell proliferation and examination of the metabolic activity of viable cells. Test substances were examined for activity on the proliferation of human or murine tumor cell lines at assay concentrations from 0.01 to 100 µM.

COX-1 = biological target: T2, COX-1 (Homo sapiens, UniProt P23219); experiment: COX-1 inhibition in human platelets (PGE2 enzyme immunoassay); format: biochemical; conditions: read-out: % COX-1 Inhibition
T2 construct: endogenous in cells; host or cells: human platelets
Experimental: (§1) The COX-1 inhibitory activity of representative compounds of the invention was determined according to previously reported methods. COX-1 activity was assessed in human platelets using 100 µM arachidonic acid as a substrate and preincubation and incubation times of 15 min at 37 °C in HBSS, 15 mM HEPES pH 7.4 . The quantification method used was enzyme immunoassay determination of PGE2 (Chan, C.C. et al. J Pharmacol Exp Ther, 1999, 290, 551-560; Swinney, D.C. et al. J Biol Chem, 1997, 272, 12393-12398; Warner, T.D. et al. Proc Natl Acad Sci U S A, 1999, 96, 7563-7568; Riendeau, D. et al. Can J Physiol Pharmacol, 1997, 75, 1088-1095). COX-2 inhibitory activity was determined in human recombinant insect Sf21 cells according to references (Warner, T.D. et al., Proc Natl Acad Sci, USA. 1999;96(13):7563-7568; Riendeau, D. et al., Can J Physiol Pharmacol, 1997 ;75(9):1088-1095). Briefly, the COX-2 inhibitory activity was assessed on human recombinant insect Sf21 cells using 0.3 µM arachidonic acid as a substrate and preincubation and incubation times of 15 and 5 min, respectively, at 37 °C in 100 mM Tris-HCl, pH 7.7. The quantification method used was enzyme immunoassay determination of PGE2. Table 11. Inhibition of COX-1 and COX-2 at 10 µM

COX-2 = biological target: T3, COX-2 (Homo sapiens, UniProt P35354); experiment: COX-2 inhibition (PGE2 enzyme immunoassay); format: biochemical; conditions: read-out: % COX-2 inhibition
T3 construct: host or cells: Sf21 insect cells
T3 sequence (P35354 18-604): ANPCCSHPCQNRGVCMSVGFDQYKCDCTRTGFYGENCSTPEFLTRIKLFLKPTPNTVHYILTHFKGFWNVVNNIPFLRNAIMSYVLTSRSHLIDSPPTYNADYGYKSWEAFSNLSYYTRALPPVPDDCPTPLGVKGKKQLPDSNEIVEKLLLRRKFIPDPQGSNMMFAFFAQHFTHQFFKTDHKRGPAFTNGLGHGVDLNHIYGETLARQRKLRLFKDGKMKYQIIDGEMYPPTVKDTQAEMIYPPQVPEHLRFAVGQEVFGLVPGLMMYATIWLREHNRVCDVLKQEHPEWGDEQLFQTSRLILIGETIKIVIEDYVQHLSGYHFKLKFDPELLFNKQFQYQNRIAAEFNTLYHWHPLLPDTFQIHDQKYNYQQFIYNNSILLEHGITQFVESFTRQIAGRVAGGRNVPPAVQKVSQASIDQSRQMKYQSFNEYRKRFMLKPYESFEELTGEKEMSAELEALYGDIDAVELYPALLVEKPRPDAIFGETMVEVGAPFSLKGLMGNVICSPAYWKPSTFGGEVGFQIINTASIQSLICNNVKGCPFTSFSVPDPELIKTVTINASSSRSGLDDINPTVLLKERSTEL
Experimental: as §1

5-LO = biological target: T4, 5-LO (Homo sapiens, UniProt P09917); experiment: 5-Lipoxygenase inhibition (LTB4 enzyme immunoassay); format: biochemical
T4 construct: host or cells: Sf9 insect cells
T4 sequence (P09917 1-674): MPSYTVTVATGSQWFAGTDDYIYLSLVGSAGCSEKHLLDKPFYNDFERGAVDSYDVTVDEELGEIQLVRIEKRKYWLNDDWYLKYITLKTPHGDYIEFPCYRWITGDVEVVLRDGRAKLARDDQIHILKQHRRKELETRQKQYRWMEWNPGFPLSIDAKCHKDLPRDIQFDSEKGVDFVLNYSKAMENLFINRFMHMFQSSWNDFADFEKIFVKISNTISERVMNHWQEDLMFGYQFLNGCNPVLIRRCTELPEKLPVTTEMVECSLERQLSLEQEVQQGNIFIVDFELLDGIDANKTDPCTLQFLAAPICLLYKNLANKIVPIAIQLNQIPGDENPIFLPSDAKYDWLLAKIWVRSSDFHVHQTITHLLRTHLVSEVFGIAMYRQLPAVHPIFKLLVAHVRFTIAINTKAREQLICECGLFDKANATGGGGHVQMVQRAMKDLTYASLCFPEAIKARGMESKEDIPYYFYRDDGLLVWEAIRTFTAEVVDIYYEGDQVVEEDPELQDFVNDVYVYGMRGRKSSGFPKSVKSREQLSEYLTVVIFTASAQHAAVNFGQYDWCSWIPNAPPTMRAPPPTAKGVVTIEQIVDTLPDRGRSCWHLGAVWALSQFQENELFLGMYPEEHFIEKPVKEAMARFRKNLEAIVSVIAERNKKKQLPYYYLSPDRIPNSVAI
Experimental: The 5-LO-inhibitory activity of compounds of the invention was determined using previously reported assays. Briefly, lipoxygenase activity was evaluated in human recombinant insect Sf9 cells using 3µM arachidonic acid as a substrate with a preincubation and incubation times of 15 and 5 min respectively at 25°C in a 50 mM Tris-HCl, pH 7.4, 2 mM CaCl2, 1 mM ATP. The quantification method used was enzyme immunoassay determination of LTB4 and the significance criteria were established with a response equal or different of the maximum stimulation or inhibition (Noguchi, M. et al., Eur J Biochem, 1994, 222(2), 285-292; Percival, M.D. et al., Eur J Biochem, 1992, 210(1), 109-117).

[1] = EGFR, at 10 µM, read-out: % Inhibition
[2] = tumor leukaemia K562, read-out: IC50
[3] = 5-LO, at 10 µM, read-out: % Inhibition

T2 sequence (P23219 24-599): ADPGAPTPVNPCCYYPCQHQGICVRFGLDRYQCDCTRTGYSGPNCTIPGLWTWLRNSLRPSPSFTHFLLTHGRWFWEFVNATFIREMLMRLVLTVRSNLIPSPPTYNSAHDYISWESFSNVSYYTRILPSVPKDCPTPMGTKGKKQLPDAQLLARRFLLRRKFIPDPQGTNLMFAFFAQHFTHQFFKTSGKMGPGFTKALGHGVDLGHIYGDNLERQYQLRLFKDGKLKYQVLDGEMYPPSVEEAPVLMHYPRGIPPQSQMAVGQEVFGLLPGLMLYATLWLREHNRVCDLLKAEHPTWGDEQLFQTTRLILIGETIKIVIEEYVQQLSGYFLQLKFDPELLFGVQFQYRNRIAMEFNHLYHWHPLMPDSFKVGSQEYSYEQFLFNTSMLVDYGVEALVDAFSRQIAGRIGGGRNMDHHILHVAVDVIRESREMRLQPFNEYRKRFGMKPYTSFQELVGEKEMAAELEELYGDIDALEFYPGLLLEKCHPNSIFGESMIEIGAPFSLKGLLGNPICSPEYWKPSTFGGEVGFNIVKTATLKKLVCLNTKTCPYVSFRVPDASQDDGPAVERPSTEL
T1 sequence (P00533 25-1210): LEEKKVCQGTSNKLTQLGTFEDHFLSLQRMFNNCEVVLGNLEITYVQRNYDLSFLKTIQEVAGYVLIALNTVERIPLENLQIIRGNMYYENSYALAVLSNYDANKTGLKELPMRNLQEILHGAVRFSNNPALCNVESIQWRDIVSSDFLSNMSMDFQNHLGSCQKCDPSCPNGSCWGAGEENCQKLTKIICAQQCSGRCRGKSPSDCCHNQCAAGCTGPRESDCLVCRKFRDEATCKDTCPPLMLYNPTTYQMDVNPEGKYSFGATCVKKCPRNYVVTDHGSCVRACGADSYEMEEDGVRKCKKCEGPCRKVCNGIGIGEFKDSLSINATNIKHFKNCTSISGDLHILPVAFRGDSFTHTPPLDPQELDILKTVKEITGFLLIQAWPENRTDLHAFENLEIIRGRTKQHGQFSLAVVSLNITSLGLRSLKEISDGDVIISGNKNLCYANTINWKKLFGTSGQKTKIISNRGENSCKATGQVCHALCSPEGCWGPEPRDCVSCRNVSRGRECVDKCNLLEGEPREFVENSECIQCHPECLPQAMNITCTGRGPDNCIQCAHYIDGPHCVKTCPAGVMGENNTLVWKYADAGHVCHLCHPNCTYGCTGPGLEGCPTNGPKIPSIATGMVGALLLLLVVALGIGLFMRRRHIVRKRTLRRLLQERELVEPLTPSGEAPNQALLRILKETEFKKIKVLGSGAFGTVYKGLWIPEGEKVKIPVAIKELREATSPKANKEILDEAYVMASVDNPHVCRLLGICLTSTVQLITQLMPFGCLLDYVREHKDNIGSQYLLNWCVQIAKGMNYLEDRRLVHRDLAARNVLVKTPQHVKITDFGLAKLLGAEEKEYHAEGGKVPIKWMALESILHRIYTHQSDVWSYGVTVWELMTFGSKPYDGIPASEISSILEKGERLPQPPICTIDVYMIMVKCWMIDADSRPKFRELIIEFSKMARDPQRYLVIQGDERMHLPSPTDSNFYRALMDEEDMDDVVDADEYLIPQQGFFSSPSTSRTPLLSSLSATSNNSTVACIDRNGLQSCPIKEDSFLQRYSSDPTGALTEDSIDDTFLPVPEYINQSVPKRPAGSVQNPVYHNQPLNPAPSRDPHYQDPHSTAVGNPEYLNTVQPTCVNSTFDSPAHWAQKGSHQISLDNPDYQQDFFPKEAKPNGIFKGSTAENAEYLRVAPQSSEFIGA

Compound | inhibition at 10 µM (EGFR) [%] | IC50 (tumor leukaemia K562; K562) [nM] | inhibition at 10 µM (COX-1) [%] | inhibition at 10 µM (COX-2) [%] | inhibition at 10 µM (5-LO) [%] | inhibition at 10 µM (EGFR; [1]) [%] | IC50 (tumor leukaemia K562; [2]) [nM] | inhibition at 10 µM (COX-1; at 10 µM, human platelets) [%] | inhibition at 10 µM (COX-2; at 10 µM) [%] | inhibition at 10 µM (5-LO; [3]) [%]
C=CCc1ccc(O)c(-c2ccc(OC(CCNC)c3ccccc3)c(CC=C)c2)c1 (stereo not drawn) [Example 5, 3',5-Diallvl-4'-13-(methylamino)-1-phenylpropoxy]biphenyl-2-ol hydrochloride] | 99 | 1400 | 75 | 0 | 101 | – | – | – | – | –
C=CCc1ccc(O)c(-c2cc(CC=C)ccc2OC(CCNC)c2ccccc2)c1.Cl (stereo not drawn) [Example 1, 5,5'-Diallyl-2'-[3-(methylamino)-1-phenylpropoxy]biphenyl-2-ol hydrochloride] | – | – | – | – | – | 72 | 1900 | 81 | 0 | 100
C=CCc1ccc(O)c(-c2ccc(O)c(CC=C)c2)c1 [Honokiol, reference compound] | – | – | – | – | – | 7 | 16000 | 0 | 79 | 85

— patent EP2423181A1, “Multitarget substituted biphenyl diol derivatives” (PROUS INSTITUTE FOR BIOMEDICAL RESEARCH S.A., priority 2010, dated 2012)
